biological target: Human complement C1s enzyme (Homo sapiens (Human), UniProt P09871); test: Human C1s enzyme assay; assay type: biochemical; details: Human C1s enzyme assay of Example 3; read-out: IC50 (Stars)
Protocol: Human complement C1s enzyme (purified from human serum, Complement Technology, Inc.) at 1.16 nM final concentration was incubated with test compound at various concentrations for 5 min at room temperature in 50 mM Tris, 1 M NaCl, pH 7.5. A synthetic substrate Z-L-Lys-SBzl and DTNB (Ellman's reagent) were added to final concentrations of 100 μM each. Absorbance at 405 nm (A405) was recorded at 30 second intervals for 30 min using a microplate spectrophotometer. IC50 values were calculated by nonlinear regression of complement C1s reaction rates as a function of test compound concentration.

Chain of Human complement C1s enzyme (P09871 438-688 limits assumed): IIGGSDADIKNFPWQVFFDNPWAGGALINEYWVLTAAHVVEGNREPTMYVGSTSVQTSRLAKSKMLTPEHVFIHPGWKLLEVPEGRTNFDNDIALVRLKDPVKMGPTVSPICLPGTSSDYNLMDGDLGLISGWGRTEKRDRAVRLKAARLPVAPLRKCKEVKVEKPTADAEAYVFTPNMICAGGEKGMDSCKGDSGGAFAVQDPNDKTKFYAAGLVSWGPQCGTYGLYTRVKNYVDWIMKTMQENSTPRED
Chain of Human complement C1s enzyme (P09871 16-437 partner limits assumed): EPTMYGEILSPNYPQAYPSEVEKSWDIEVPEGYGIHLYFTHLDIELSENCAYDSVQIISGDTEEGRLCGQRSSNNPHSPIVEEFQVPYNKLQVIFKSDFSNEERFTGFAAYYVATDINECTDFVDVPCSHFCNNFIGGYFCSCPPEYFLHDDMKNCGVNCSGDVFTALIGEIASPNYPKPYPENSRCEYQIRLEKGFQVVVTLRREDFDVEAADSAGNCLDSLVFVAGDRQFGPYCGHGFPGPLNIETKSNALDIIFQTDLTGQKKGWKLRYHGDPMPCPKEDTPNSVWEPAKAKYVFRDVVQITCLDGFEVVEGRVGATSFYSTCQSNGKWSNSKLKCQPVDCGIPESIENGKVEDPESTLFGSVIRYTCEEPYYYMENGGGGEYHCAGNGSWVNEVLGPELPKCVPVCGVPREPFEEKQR

SMILES | IC50 [nM]
C[C@@H](NC(=O)[C@@H]1C[C@](F)(CN(C)C)CN1C(=O)CNC(=O)c1ccc2c(c1)-c1ccccc1C2(F)F)c1cc(C(=N)N)cs1 [Compound 36, (2S,4S)—N—((R)-1-(4-carbamimidoylthiophen-2-yl)ethyl)-1-((9,9-difluoro-9H-fluorene-3-carbonyl)glycyl)-4-((dimethylamino)methyl)-4-fluoropyrrolidine-2-carboxamide] | < 100
Nc1ccc(-c2csc(CNC(=O)[C@@H]3CC4(CN3C(=O)CNC(=O)c3ccc(Oc5ccc(F)cc5)cc3)OCCO4)c2)cn1 [Compound 123, (S)—N-((4-(6-aminopyridin-3-yl)thiophen-2-yl)methyl)-7-((4-(4-fluorophenoxy)benzoyl)glycyl)-1,4-dioxa-7-azaspiro[4.4]nonane-8-carboxamide] | > 1000
CO[C@@H]1C[C@@H](C(=O)N[C@H](C)c2cc(C(=N)N)cs2)N(C(=O)CNC(=O)c2ccc3c(c2)-c2ccccc2C3(F)F)C1 [Compound 71, (2S,4R)—N—((R)-1-(4-carbamimidoylthiophen-2-yl)ethyl)-1-((9,9-difluoro-9H-fluorene-3-carbonyl)glycyl)-4-methoxypyrrolidine-2-carboxamide] | < 100
CC1(C)c2ccccc2-c2cc(C(=O)NCC(=O)N3CC4(C[C@H]3C(=O)NCc3cc(C(=N)N)cs3)OCCO4)ccc21 [Compound 60, (S)—N-((4-carbamimidoylthiophen-2-yl)methyl)-7-((9,9-dimethyl-9H-fluorene-3-carbonyl)glycyl)-1,4-dioxa-7-azaspiro[4.4]nonane-8-carboxamide] | < 100
Nc1cccc(-c2csc(CNC(=O)[C@@H]3CC4(CN3C(=O)CNC(=O)c3ccc(Oc5ccc(F)cc5)cc3)OCCO4)c2)n1 [Compound 103, (S)—N-((4-(6-aminopyridin-2-yl)thiophen-2-yl)methyl)-7-((4-(4-fluorophenoxy)benzoyl)glycyl)-1,4-dioxa-7-azaspiro[4.4]nonane-8-carboxamide] | > 1000
Cc1ccc(-c2ccc(C(=O)NCC(=O)N3CC4(C[C@H]3C(=O)N[C@H](C)c3cc(C(=N)N)cs3)OCCO4)cc2)cc1 [Compound 126, (S)—N—((R)-1-(4-carbamimidoylthiophen-2-yl)ethyl)-7-((4′-methyl-[1,1′-biphenyl]-4-carbonyl)glycyl)-1,4-dioxa-7-azaspiro[4.4]nonane-8-carboxamide] | < 100
C[C@@H](NC(=O)[C@@H]1CC2(CN1C(=O)CNC(=O)c1ccc(Oc3ccc(F)cc3)cc1)OCCO2)c1ccc(C(=N)N)s1 [Compound 85, (S)—N—((R)-1-(5-carbamimidoylthiophen-2-yl)ethyl)-7-((4-(4-fluorophenoxy)benzoyl)glycyl)-1,4-dioxa-7-azaspiro[4.4]nonane-8-carboxamide] | < 100
Cc1ccc2c(c1)C(F)(F)c1ccc(C(=O)NCC(=O)N3CC4(C[C@H]3C(=O)N[C@H](C)c3cc(C(=N)N)cs3)OCCO4)cc1-2 [Compound 190, (S)—N—((R)-1-(4-carbamimidoylthiophen-2-yl)ethyl)-7-((9,9-difluoro-7-methyl-9H-fluorene-3-carbonyl)glycyl)-1,4-dioxa-7-azaspiro[4.4]nonane-8-carboxamide] | < 100
N=C(N)c1csc(CNC(=O)[C@@H]2CC3(CN2C(=O)CNC(=O)c2ccc(-c4ccccc4)c(F)c2)OCCO3)c1 [Compound 141, (S)—N-((4-carbamimidoylthiophen-2-yl)methyl)-7-((2-fluoro-[1,1′-biphenyl]-4-carbonyl)glycyl)-1,4-dioxa-7-azaspiro[4.4]nonane-8-carboxamide] | < 100
C[C@@H](NC(=O)[C@@H]1CC2(CN1C(=O)CNC(=O)c1ccc3c(c1)-c1ccccc1C3F)OCCO2)c1cc(C(=N)N)cs1 (stereo partly drawn) [Compound 127, (8S)—N—((R)-1-(4-carbamimidoylthiophen-2-yl)ethyl)-7-((9-fluoro-9H-fluorene-3-carbonyl)glycyl)-1,4-dioxa-7-azaspiro[4.4]nonane-8-carboxamide] | < 100
Nc1cnc(-c2csc(CNC(=O)[C@@H]3CC4(CN3C(=O)CNC(=O)c3ccc(Oc5ccc(F)cc5)cc3)OCCO4)c2)s1 [Compound 185, (S)—N-((4-(5-aminothiazol-2-yl)thiophen-2-yl)methyl)-7-((4-(4-fluorophenoxy)benzoyl)glycyl)-1,4-dioxa-7-azaspiro[4.4]nonane-8-carboxamide] | < 100
CC(NC(=O)[C@@H]1CC2(CN1C(=O)CNC(=O)c1ccc(-c3ccccc3)cn1)OCCO2)c1cc(C(=N)N)cs1 (stereo in doubt) [Compound 167, (S)—N—((S)-1-(4-carbamimidoylthiophen-2-yl)ethyl)-7-((5-phenylpicolinoyl)glycyl)-1,4-dioxa-7-azaspiro[4.4]nonane-8-carboxamide] | < 100
C[C@@H](NC(=O)[C@@H]1CC2(CN1C(=O)CNC(=O)c1ccc3c(c1)C(F)(F)c1ccccc1-3)OCCO2)c1cc(C(=N)N)cs1 [Compound 138, (S)—N—((R)-1-(4-carbamimidoylthiophen-2-yl)ethyl)-7-((9,9-difluoro-9H-fluorene-7-carbonyl)glycyl)-1,4-dioxa-7-azaspiro[4.4]nonane-8-carboxamide] | < 100

same assay, conditions: Human complement C1s enzyme 1.16 nM, substrate Z-L-Lys-SBzl 100 μM, assay of Example 3; read-out: IC50 (Stars)

SMILES | IC50 [nM]
C[C@@H](NC(=O)[C@@H]1C[C@@H](S(C)(=O)=O)CN1C(=O)CNC(=O)c1ccc2c(c1)C(C)(C)c1ccccc1-2)c1cc(C(=N)N)cs1 [Compound 369, (2S,4R)—N—((R)-1-(4-carbamimidoylthiophen-2-yl)ethyl)-1-((9,9-dimethyl-9H-fluorene-2-carbonyl)glycyl)-4-(methylsulfonyl)pyrrolidine-2-carboxamide] | < 100
C[C@@H](NC(=O)c1ccc(-c2ccccc2)cc1)C(=O)N1CC2(C[C@H]1C(=O)NCc1cc(C(=N)N)cs1)OCCO2 [Compound 302, (S)-7-(([1,1′-biphenyl]-4-carbonyl)-D-alanyl)-N-((4-carbamimidoylthiophen-2-yl)methyl)-1,4-dioxa-7-azaspiro[4.4]nonane-8-carboxamide] | < 100
C[C@@H](NC(=O)[C@@H]1C[C@H](CO)CN1C(=O)CNC(=O)c1ccc2c(c1)-c1ccccc1C2(F)F)c1cc(C(=N)N)cs1 (relative stereo) [Compound 306, (2S,4S*)—N—((R)-1-(4-carbamimidoylthiophen-2-yl)ethyl)-1-((9,9-difluoro-9H-fluorene-3-carbonyl)glycyl)-4-(hydroxymethyl)pyrrolidine-2-carboxamide] | < 100
C[C@@H](NC(=O)[C@@H]1CC2(CN1C(=O)CNC(=O)c1ccc3c(c1)Oc1ccccc1N3)OCCO2)c1cc(C(=N)N)cs1 [Compound 294, N-(2-((S)-8-(((R)-1-(4-carbamimidoylthiophen-2-yl)ethyl)carbamoyl)-1,4-dioxa-7-azaspiro[4.4]nonan-7-yl)-2-oxoethyl)-10H-phenoxazine-3-carboxamide] | < 100
CC(C)S(=O)(=O)[C@@H]1C[C@@H](C(=O)N[C@H](C)c2cc(C(=N)N)cs2)N(C(=O)CNC(=O)c2ccc3c(c2)-c2ccccc2C3(F)F)C1 [Compound 280, (2S,4R)—N—((R)-1-(4-carbamimidoylthiophen-2-yl)ethyl)-1-((9,9-difluoro-9H-fluorene-3-carbonyl)glycyl)-4-(isopropylsulfonyl)pyrrolidine-2-carboxamide] | < 100
COC[C@@]1(F)C[C@@H](C(=O)N[C@H](C)c2cc(C(=N)N)cs2)N(C(=O)CNC(=O)c2ccc3c(c2)Oc2ccccc2S3)C1 [Compound 373, (2S,4R)—N—((R)-1-(4-carbamimidoylthiophen-2-yl)ethyl)-4-fluoro-4-(methoxymethyl)-1-((phenoxathiine-3-carbonyl)glycyl)pyrrolidine-2-carboxamide] | < 100
CS(=O)(=O)N(c1csc(CNC(=O)[C@@H]2CC3(CN2C(=O)CNC(=O)c2ccc(Oc4ccc(F)cc4)cc2)OCCO3)c1)S(C)(=O)=O [Compound 286, (S)-7-((4-(4-fluorophenoxy)benzoyl)glycyl)-N-((4-((N-(methylsulfonyl)methyl)sulfonamido)thiophen-2-yl)methyl)-1,4-dioxa-7-azaspiro[4.4]nonane-8-carboxamide] | > 1000
C[C@@H](NC(=O)[C@@H]1C[C@](F)(CO)CN1C(=O)CNC(=O)c1ccc2c(c1)-c1ccccc1C2(F)F)c1cc(C(=N)N)cs1 [Compound 292, (2S,4R)—N—((R)-1-(4-carbamimidoylthiophen-2-yl)ethyl)-1-((9,9-difluoro-9H-fluorene-3-carbonyl)glycyl)-4-fluoro-4-(hydroxymethyl)pyrrolidine-2-carboxamide] | < 100
Nc1c(Nc2csc(CNC(=O)[C@@H]3CC4(CN3C(=O)CNC(=O)c3ccc(Oc5ccc(F)cc5)cc3)OCCO4)c2)c(=O)c1=O [Compound 319, (S)-N-((4-((2-amino-3,4-dioxocyclobut-1-en-1-yl)amino)thiophen-2-yl)methyl)-7-((4-(4-fluorophenoxy)benzoyl)glycyl)-1,4-dioxa-7-azaspiro[4.4]nonane-8-carboxamide] | > 1000
C[C@@H](NC(=O)[C@@H]1C[C@@H](OC(F)F)CN1C(=O)CNC(=O)c1ccc2cc3ccccc3cc2c1)c1cc(C(=N)N)cs1 [Compound 206, (2S,4R)-1-((anthracene-2-carbonyl)glycyl)-N—((R)-1-(4-carbamimidoylthiophen-2-yl)ethyl)-4-(difluoromethoxy)pyrrolidine-2-carboxamide] | < 100

same assay, conditions: Human complement C1s enzyme 1.16 nM, substrate Z-L-Lys-SBzl; assay of Example 3; read-out: IC50 (Stars)

SMILES | IC50 [nM]
CC1(C)c2ccccc2-c2cc(C(=O)NCC(=O)N3CC4(C[C@H]3C(=O)N[C@H](CO)c3cc(C(=N)N)cs3)OCCO4)ccc21 [Compound 399, (S)—N—((R)-1-(4-carbamimidoylthiophen-2-yl)-2-hydroxyethyl)-7-((9,9-dimethyl-9H-fluorene-3-carbonyl)glycyl)-1,4-dioxa-7-azaspiro[4.4]nonane-8-carboxamide] | < 100

— patent US20250346585A1 (Alexion Pharmaceuticals, Inc., priority 2022, published 2025)
